US8022072B2, “Azolylmethylidenehydrazine derivative and use thereof” (Kaken Pharmaceutical Co., Ltd., priority 2007, dated 2011)
≈ marks a conversion by molar mass, not a printed value.

Experiments:
[1] = test system: Trichophyton mentagrophytes SM-110; assay: Antifungal activity evaluation test, MIC, Trichophyton mentagrophytes SM-110; type: cell-based; conditions: SM110, 168 h, Sabouraud Dextrose Broth, 30° C., 7 days, visual, read-out: MIC T. men. SM-110
[2] = test system: Malassezia furfur IFO-0656; assay: Antifungal activity evaluation test, MIC by urease activity, Malassezia furfur IFO-0656; type: cell-based; conditions: IFO0656, 96 h, MU medium, 30° C., day 4 or 5, urease activity of 20% or below, read-out: MIC M. fur. IFO-0656
[3] = test system: Trichophyton rubrum KD-107; assay: Antifungal activity evaluation test, MIC, Trichophyton rubrum KD-107; type: cell-based; conditions: KD107, 168 h, Sabouraud Dextrose Broth, 30° C., 7 days, visual, read-out: MIC T. rub. KD-107
[4] = test system: Trichophyton mentagrophytes KD-04; assay: Antifungal activity evaluation test, MIC, Trichophyton mentagrophytes KD-04; type: cell-based; conditions: KD04, 168 h, Sabouraud Dextrose Broth, 30° C., 7 days, visual, read-out: MIC T. men. KD-04
TNCB-induced dermatitis = assay: 2,4,6-Trinitrochlorobenzene (TNCB)-induced dermatitis model, ear edema; type: in vivo, male BALB/c mouse; conditions: test compound 1 w/v % (FK506 0.1 w/v %), 20 μL applied to auricle, 24 hours after induction
Experimental: (§1) The test compound was adjusted to 1 w/v % when in use with a solvent (acetone:olive oil=1:1, v/v)) and put to use. FK506 (control substance) was adjusted to 0.1 w/v % and used.
The fur on the abdomen of male BALB/c mouse was shaved with a hair clipper, and 100 μL of 7 w/v % TNCB sensitizing liquid (solvent was acetone:olive oil=4:1, v/v) was applied. Six days after the sensitization, the thickness of the right auricle was measured with a micrometer (pre-value). After the measurement, 10 μL of 1 w/v % TNCB challenge liquid (solvent was acetone:olive oil=1:9, v/v) was applied to the inside of the right auricle to induce ear edema. About 5 minutes after the application of the challenge liquid, 20 μL of the test compound was applied to the outside of the auricle.
After 24 hours from the induction of ear edema, the thickness of the right auricle was measured by a method similar to the pre-value (post-value). The difference between the post-value and the pre-value of ear edema by each test compound was determined, based on which the inhibition rate was calculated. The activity of each test compound was calculated with the ear edema inhibition rate of FK506 as 1.0 (ear edema inhibition rate of each test compound/ear edema inhibition rate of FK506).

OVA-induced dermatitis = assay: Ovalbumin (OVA)-induced dermatitis model, ear edema; type: in vivo, male ICR mouse; design: key: ratio of compound's ear edema inhibition rate to FK506's (FK506 = 1.0); conditions: test compound 1 w/v % (FK506 0.1 w/v %), 20 μL applied to auricle, 24 hours after induction
Experimental: as §1
Male ICR mouse was sensitized by the administration of 0.2 mL of OVA-hydroxide aluminum gel suspension to the abdominal cavity. After 14 days from the sensitization, the thickness of the right auricle was measured with a micrometer (pre-value). After the measurement, 20 μL of 0.5 μg/mL OVA challenge liquid (solvent was physiological saline) was subcutaneously administered to the inside of the auricle to induce ear edema. About 5 minutes after the administration of the challenge liquid, 20 μL of the test compound was applied to the outside of the auricle. After 24 hours from the induction of ear edema, the thickness of the right auricle was measured by a method similar to the pre-value (post-value). The difference between the post-value and the pre-value of ear edema by each test compound was determined, based on which the inhibition rate was calculated. The activity of each test compound was calculated with the ear edema inhibition rate of FK506 as 1.0 (ear edema inhibition rate of each test compound/ear edema inhibition rate of FK506).

[5] = test system: Trichophyton rubrum KD-101; assay: Antifungal activity evaluation test, MIC, Trichophyton rubrum KD-101; type: cell-based; conditions: KD101, 168 h, Sabouraud Dextrose Broth, 30° C., 7 days, visual, read-out: MIC T. rub. KD-101

Row | MIC [1] [µg/mL] | MIC [2] [µg/mL] | MIC [3] [µg/mL] | MIC [4] [µg/mL] | MIC [5] [µg/mL] | SMILES | TNCB-induced dermatitis, with ear edema inhibition rate of FK506 as 1.0 (TNCB-induced dermatitis) | OVA-induced dermatitis, with ear edema inhibition rate of FK506 as 1.0 (OVA-induced dermatitis)
1 | 0.1 (≈ 0.314 µM) | 0.78 (≈ 2.45 µM) | 0.05 (≈ 0.157 µM) | 0.05 (≈ 0.157 µM) | 0.1 (≈ 0.314 µM) | CN(C)N=C(c1ccccc1CCc1ccccc1)n1ccnc1 [Compound No. 6, N′-[1-imidazol-1-yl-1-(2-phenethylphenyl)methylidene]-N,N-dimethylhydrazine] | 0.7 | 1.4
2 | 0.2 (≈ 0.574 µM) | 0.2 (≈ 0.574 µM) | 0.05 (≈ 0.143 µM) | 0.05 (≈ 0.143 µM) | 0.05 (≈ 0.143 µM) | CN(C)N=C(c1ccccc1CCCOc1ccccc1)n1ccnc1 [Compound No. 9, N′-[1-imidazol-1-yl-1-[2-(3-phenoxypropyl)phenyl]methylidene]-N,N-dimethylhydrazine] | 0.7 | 1.2
3 | 0.2 (≈ 0.561 µM) | 0.2 (≈ 0.561 µM) | 0.05 (≈ 0.14 µM) | 0.05 (≈ 0.14 µM) | 0.05 (≈ 0.14 µM) | CN(C)N=C(c1sccc1OCCOc1ccccc1)n1ccnc1 [Compound No. 101, N′-[1-imidazol-1-yl-1-[3-(2-phenoxyethoxy)thiophen-2-yl]methylidene]-N,N-dimethylhydrazine] | 0.8 | 1.4
4 | 0.39 (≈ 1.07 µM) | 0.2 (≈ 0.549 µM) | 0.05 (≈ 0.137 µM) | 0.2 (≈ 0.549 µM) | 0.1 (≈ 0.274 µM) | CCN(C)N=C(c1ccccc1OCCOc1ccccc1)n1ccnc1 [Compound No. 114, N-ethyl-N′-[1-imidazol-1-yl-1-[2-(2-phenoxyethoxy)phenyl]methylidene]-N-methylhydrazine] | 0.7 | 0.9
5 |  |  |  |  |  | CCN(C)N=C(c1ccccc1OCCCCOc1ccccc1)n1ccnc1 [Compound No. 116, N-ethyl-N′-[1-imidazol-1-yl-1-[2-(4-phenoxybutoxy)phenyl]methylidene]-N-methylhydrazine] | 0.7 | 1.1
6 |  |  |  |  |  | CCN(CC)N=C(c1ccccc1OCCOc1ccccc1)n1ccnc1 [Compound No. 119, N,N-diethyl-N′-[1-imidazol-1-yl-1-[2-(2-phenoxyethoxy)phenyl]methylidene]hydrazine] | 0.9 | 1.1
7 | 0.1 (≈ 0.306 µM) | 0.2 (≈ 0.613 µM) | 0.05 (≈ 0.153 µM) | 0.05 (≈ 0.153 µM) | 0.05 (≈ 0.153 µM) | CCCCCOc1ccccc1C(=NN1CCCC1)n1ccnc1 [Compound No. 157, [1-imidazol-1-yl-1-(2-pentyloxyphenyl)methylidene]pyrrolidin-1-ylamine] | 0.8 | 1.3
8 | 0.39 (≈ 1.04 µM) | 0.39 (≈ 1.04 µM) | 0.1 (≈ 0.266 µM) | 0.2 (≈ 0.531 µM) | 0.1 (≈ 0.266 µM) | c1ccc(OCCOc2ccccc2C(=NN2CCCC2)n2ccnc2)cc1 [Compound No. 161, [1-imidazol-1-yl-1-[2-(2-phenoxyethoxy)phenyl]methylidene]pyrrolidin-1-ylamine] | 0.7 | 0.9
9 |  |  |  |  |  | c1ccc(OCCOc2ccccc2C(=NN2CCCCC2)n2ccnc2)cc1 [Compound No. 175, [1-imidazol-1-yl-1-[2-(2-phenoxyethoxy)phenyl]methylidene]piperidin-1-ylamine] | 0.6 | 1.4
10 |  |  |  |  |  | CCOc1ccccc1C(=NN1CCCCCC1)n1ccnc1 [Compound No. 197, [1-(2-ethoxyphenyl)-1-imidazol-1-ylmethylidene]homopiperidin-1-ylamine] | 0.7 | 1.1
11 |  |  |  |  |  | CCCCOc1ccccc1C(=NN1CCCCCC1)n1ccnc1 [Compound No. 202, [1-(2-butoxyphenyl)-1-imidazol-1-ylmethylidene]homopiperidin-1-ylamine] | 0.7 | 1.0
12 |  |  |  |  |  | CCCCCOc1ccccc1C(=NN1CCCCCC1)n1ccnc1 [Compound No. 203, homopiperidin-1-yl-[1-imidazol-1-yl-1-(2-pentyloxyphenyl)methylidene]amine] | 0.9 | 1.0
13 |  |  |  |  |  | c1ccc(OCCOc2ccccc2C(=NN2CCCCCC2)n2ccnc2)cc1 [Compound No. 215, homopiperidin-1-yl-[1-imidazol-1-yl-1-[2-(2-phenoxyethoxy)phenyl]methylidene]amine] | 0.8 | 1.2
14 |  |  |  |  |  | c1ccc(OCCCOc2ccccc2C(=NN2CCCCCC2)n2ccnc2)cc1 [Compound No. 216, homopiperidin-1-yl-[1-imidazol-1-yl-1-[2-(3-phenoxypropoxy)phenyl]methylidene]amine] | 0.5 | 1.5
15 |  |  |  |  |  | FC(F)(F)Oc1ccccc1C(=NN1CCCCCC1)n1ccnc1 [Compound No. 219, homopiperidin-1-yl-[1-imidazol-1-yl-1-(2-trifluoromethoxyphenyl)methylidene]amine] | 0.6 | 1.1
16 |  |  |  |  |  | CCSc1ccccc1C(=NN1CCCCCC1)n1ccnc1 [Compound No. 220, [1-(2-ethylthiophenyl)-1-imidazol-1-ylmethylidene]homopiperidin-1-ylamine] | 0.5 | 1.1
17 |  |  |  |  |  | C=CC[C@@H]1/C=C(\C)C[C@H](C)C[C@H](OC)[C@H]2O[C@@](O)(C(=O)C(=O)N3CCCC[C@H]3C(=O)O[C@H](/C(C)=C/[C@@H]3CC[C@@H](O)[C@H](OC)C3)[C@H](C)[C@@H](O)CC1=O)[C@H](C)C[C@@H]2OC [FK506, tacrolimus, reference compound] | 1.0 | 1.0

Row | SMILES | MIC [1] [µg/mL] | MIC [2] [µg/mL] | MIC [3] [µg/mL] | MIC [4] [µg/mL] | MIC [5] [µg/mL] | TNCB-induced dermatitis, with ear edema inhibition rate of FK506 as 1.0 (TNCB-induced dermatitis) | OVA-induced dermatitis, with ear edema inhibition rate of FK506 as 1.0 (OVA-induced dermatitis)
18 | CN(C)N=C(c1ccccc1OCCCCOc1ccccc1)n1ccnc1 [Compound No. 71, N′-[1-imidazol-1-yl-1-[2-(4-phenoxybutoxy)phenyl]methylidene]-N,N-dimethylhydrazine] | 0.1 (≈ 0.264 µM) | 0.05 (≈ 0.132 µM) | 0.025 (≈ 0.0661 µM) | 0.05 (≈ 0.132 µM) | 0.05 (≈ 0.132 µM) | 0.9 | 0.9
